According to patent US7084127B2, “C2,5′-disubstituted and N6, C2,5′-trisubstituted adenosine derivatives and their different uses” (Universiteit Leiden, priority 2001, dated 2006):
Where two headings read alike, the source gives them in different places.

Columns and labels:
[1] = molecular target: T1, human A3 receptor as expressed in HEK 293 cells (Homo sapiens, UniProt P0DMS8); assay: Radioligand binding, displacement of [125I]AB MECA, HEK 293 cell membranes
T1 construct: expressed in transfected cells; host or cells: HEK 293 cells (membrane suspension)
T1 sequence (P0DMS8 1-318): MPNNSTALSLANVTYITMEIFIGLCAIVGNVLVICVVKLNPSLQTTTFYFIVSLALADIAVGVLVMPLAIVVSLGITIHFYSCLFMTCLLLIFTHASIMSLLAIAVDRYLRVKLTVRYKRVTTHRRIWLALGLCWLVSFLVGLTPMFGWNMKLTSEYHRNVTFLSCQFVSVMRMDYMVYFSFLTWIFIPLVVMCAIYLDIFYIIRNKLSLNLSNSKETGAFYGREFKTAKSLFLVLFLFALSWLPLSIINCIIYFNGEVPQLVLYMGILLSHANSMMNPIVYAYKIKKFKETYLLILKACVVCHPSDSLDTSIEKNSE
Method: (§1) Incubations were carried out for 1 hr at 37° C. and were terminated by rapid filtration over Whatman GF/B filters, using a Brandell cell harvester (Brandell, Gaithersburg, Md.). Tubes were washed three times with 3 ml of buffer. Radioactivity was determined in a Beckman 5500B γ-counter. Nonspecific binding was determined in the presence of 10^−5 M R-PIA.
(§2) All compounds were tested in radioligand binding assays to determine their affinities for the adenosine A1 receptor in rat brain cortex, the A2A receptor in rat striatum and the human A3 receptor as expressed in HEK 293 cells (Table 2). […] AB-MECA, an A3 receptor agonist, was also used. Displacement experiments were performed in the absence of GTP.

[2] = molecular target: T2, human adenosine A3 receptor (Homo sapiens, UniProt P0DMS8); assay: cAMP assay A3 (inhibition of forskolin-induced cAMP production); assay type: cell-based; settings: read-out: Emax (%) A3
T2 construct: expressed in transfected cells; HEK 293 cells according to b145 and b219
T2 sequence (P0DMS8 1-318): T1 sequence (P0DMS8 1-318)
Method: cAMP assay A3 CHO cells expressing the human adenosine A3 receptor were grown overnight as a monolayer in 24 wells tissue culture plates (400 μl/well; 2×10^5 cells/well). cAMP generation was performed in Dulbecco's Modified Eagles Medium (DMEM)/N-2-hydroxyethylpiperazin-N′-2-ethansulfonic acid (HEPES) buffer (0.60 g HEPES/50 ml DMEM pH 7.4). […] After incubation for 40 minutes at 37° C., 100 μl forskolin (final concentration 10 μM) was added. After 15 minutes at 37° C., the reaction was terminated by removing the medium and adding 200 μl 0.1 M HCl. Wells were stored at −20° C. until assay. The amounts of cAMP were determined after a protocol with cAMP binding protein^36 with the following minor modifications. As a buffer was used 150 mM K2HPO4/10 mM EDTA/0.2% Bovine Serum Albumine (BSA) at pH 7.5. Samples (20 μl+30 μl 0.1 M HCl) were incubated for at least 2.5 hours at 0° C. before filtration over Whatman GF/B filters. […] Filters were counted in Packard Emulsifier Safe scintillation fluid (3.5 ml) after 24 hours of extraction.
All compounds were also tested in functional assays.
The ability of the compounds to inhibit forskolin-stimulated (10 μM) cAMP production via the adenosine A3 receptor was also studied.
The amounts of cAMP were determined after a protocol with cAMP binding protein^28 with the following minor modifications. As a buffer was used 150 mM K2HPO4/10 mM EDTA/0.2% Bovine Serum Albumine (BSA) at pH 7.5. Samples (20 μl+30 μl 0.1 M HCl) were incubated for at least 2.5 hours at 0° C. before filtration over Whatman GF/B filters. […] Filters were counted in Packard Emulsifier Safe scintillation fluid (3.5 ml) after 24 hours of extraction.

[3] = molecular target: T3, adenosine A1 receptor in rat brain cortex (Rattus norvegicus, UniProt P25099); assay: Radioligand binding, displacement of [3H]DPCPX from rat cortical membranes; settings: ligand 10^−5 M
T3 construct: the adenosine A1 receptor in rat brain cortex; from tissue; host or cells: rat brain cortex
T3 sequence (P25099 1-326): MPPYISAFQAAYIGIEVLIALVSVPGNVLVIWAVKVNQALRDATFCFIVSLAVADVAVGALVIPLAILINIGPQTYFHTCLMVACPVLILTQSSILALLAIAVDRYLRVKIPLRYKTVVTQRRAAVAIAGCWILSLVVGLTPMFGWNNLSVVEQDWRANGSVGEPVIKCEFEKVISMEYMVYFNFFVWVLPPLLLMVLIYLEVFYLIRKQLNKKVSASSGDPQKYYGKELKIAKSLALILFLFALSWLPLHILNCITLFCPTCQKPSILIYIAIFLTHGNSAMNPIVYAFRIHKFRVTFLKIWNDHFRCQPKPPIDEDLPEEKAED
Method: as §1, §2

[4] = molecular target: T4, A2A receptor in rat striatum (Rattus norvegicus, UniProt P30543); assay: Radioligand binding, displacement of [3H]ZM241385 from rat striatal membranes;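 also: displacement assays run in the absence of GTP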
T4 construct: the A2A receptor in rat striatum; from tissue; host or cells: rat striatum
Method: as §1, §2

[5] = molecular target: T5, human adenosine A2A receptors expressed in CHO cells (Homo sapiens, UniProt P29274); assay: cAMP assay A2A (stimulation of cAMP production); assay type: cell-based
T5 construct: expressed in transfected cells; host or cells: CHO cells
Method: cAMP assay A2A CHO cells expressing human adenosine A2A receptors were grown overnight as a monolayer in 24 wells tissue culture plates (400 μL/well; 2×10^5 cells/well). cAMP generation was performed in Dulbecco's Modified Eagles Medium (DMEM)/N-2-hydroxyethylpiperazin-N′-2-ethanesulfonic acid (HEPES) buffer (0.60 g HEPES/50 mL DMEM pH 7.4). To each well, washed three times with DMEM/HEPES buffer (250 μλ), 100 μl DMEM/HEPES buffer, 100 μl adenosine deaminase (final concentration 5 IU/ml) and 100 μl of a mixture of rolipram and cilostamide (final concentration 50 μM each) were added. After incubation for 40 minutes at 37° C., 100 μl agonist was added. […] After 15 minutes at 37° C., the reaction was terminated by removing the medium and adding 200 μl 0.1 M HCl. Wells were stored at −20° C. until assay.
The amounts of cAMP were determined after a protocol with cAMP binding protein^36 with the following minor modifications. As a buffer was used 150 mM K2HPO4/10 mM EDTA/0.2% Bovine Serum Albumine (BSA) at pH 7.5. Samples (20 μl+30 μl 0.1 M HCl) were incubated for at least 2.5 hours at 0° C. before filtration over Whatman GF/B filters. […] Filters were counted in Packard Emulsifier Safe scintillation fluid (3.5 ml) after 24 hours of extraction.
Data Analysis Apparent Ki and EC50 values were computed from the displacement curves by non-linear regression of the competition curves with the software package Prism (Graph Pad, San Diego, Calif.)

[6] = molecular target: T6, human adenosine A1 receptors expressed in CHO cells (Homo sapiens, UniProt P30542); assay: cAMP assay A1 (inhibition of forskolin-induced cAMP production); assay type: cell-based; settings: for % inhib. A1 of forskolin-induced cAMP: compared to reference full agonist CPA (10 μM) in A1 CHO cells, tested at ±100 × Ki, ±SEM, n = 3, forskolin 10 μM
T6 construct: expressed in transfected cells; host or cells: CHO cells
T6 sequence (P30542 1-326): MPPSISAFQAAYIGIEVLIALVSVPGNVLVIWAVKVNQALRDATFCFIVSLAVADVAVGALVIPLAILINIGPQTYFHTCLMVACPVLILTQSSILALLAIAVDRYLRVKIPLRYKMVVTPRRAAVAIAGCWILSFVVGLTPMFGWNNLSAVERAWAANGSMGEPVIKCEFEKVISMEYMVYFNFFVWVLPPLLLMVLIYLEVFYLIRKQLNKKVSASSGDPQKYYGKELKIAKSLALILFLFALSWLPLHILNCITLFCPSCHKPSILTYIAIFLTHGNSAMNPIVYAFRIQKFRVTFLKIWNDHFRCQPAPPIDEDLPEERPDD
Method: cAMP assay A1 and A3 CHO cells expressing either the human adenosine A1 or A3 receptor were grown overnight as a monolayer in 24 wells tissue culture plates (400 μl/well; 2×10^5cells/well). cAMP generation was performed in Dulbecco's Modified Eagles Medium (DMEM)/N-2-hydroxyethylpiperazin-N′-2-ethansulfonic acid (HEPES) buffer (0.60 g HEPES/50 ml DMEM pH 7.4). […] After incubation for 40 minutes at 37° C., 100 μl forskolin (final concentration 10 μM) was added. After 15 minutes at 37° C., the reaction was terminated by removing the medium and adding 200 μL 0.1 M HCl. Wells were stored at −20° C. until assay
The amounts of cAMP were determined after a protocol with cAMP binding protein^28 with the following minor modifications. As a buffer was used 150 mM K2HPO4/10 mM EDTA/0.2% Bovine Serum Albumine (BSA) at pH 7.5. Samples (20 μl+30 μl 0.1 M HCl) were incubated for at least 2.5 hours at 0° C. before filtration over Whatman GF/B filters. Filters were additionally rinsed with 2×2 ml TrisHCl buffer (pH 7.4, 4° C.). Filters were counted in Packard Emulsifier Safe scintillation fluid (3.5 ml) after 24 hours of extraction. […]

[7] = [3H]ZM241385, rat striatal membranes
[8] = cAMP production, human A2A in CHO cells
[9] = compared to full agonist CGS 21680
[10] = [3H]ZM241385, rat striatal membranes, ligand 10^−5 M

T4 sequence (P30543 whole entry): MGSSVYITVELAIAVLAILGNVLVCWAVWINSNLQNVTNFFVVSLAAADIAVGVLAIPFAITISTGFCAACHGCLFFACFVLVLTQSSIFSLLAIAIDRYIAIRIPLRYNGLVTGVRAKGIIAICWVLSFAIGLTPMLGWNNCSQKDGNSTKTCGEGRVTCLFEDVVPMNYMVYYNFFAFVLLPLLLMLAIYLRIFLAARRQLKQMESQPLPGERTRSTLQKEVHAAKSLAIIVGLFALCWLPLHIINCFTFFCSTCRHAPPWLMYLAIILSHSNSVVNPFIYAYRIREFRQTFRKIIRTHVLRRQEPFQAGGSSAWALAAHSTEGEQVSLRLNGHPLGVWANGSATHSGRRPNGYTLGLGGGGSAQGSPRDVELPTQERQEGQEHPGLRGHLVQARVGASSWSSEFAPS
T5 sequence (P29274 whole entry): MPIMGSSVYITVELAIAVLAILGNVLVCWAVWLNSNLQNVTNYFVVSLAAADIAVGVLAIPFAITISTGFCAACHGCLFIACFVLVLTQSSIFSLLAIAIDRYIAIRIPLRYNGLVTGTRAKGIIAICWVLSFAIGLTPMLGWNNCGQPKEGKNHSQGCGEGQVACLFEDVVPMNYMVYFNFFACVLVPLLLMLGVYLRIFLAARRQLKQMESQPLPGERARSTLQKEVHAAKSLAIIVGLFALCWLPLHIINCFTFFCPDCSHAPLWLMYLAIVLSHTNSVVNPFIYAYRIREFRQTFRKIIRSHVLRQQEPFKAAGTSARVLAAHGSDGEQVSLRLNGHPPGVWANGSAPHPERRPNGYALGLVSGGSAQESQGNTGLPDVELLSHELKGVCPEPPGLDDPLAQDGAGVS

Molecule | Ki [4, 7] | % inhib. A1 of forskolin-induced cAMP [6] | % displacement at 10^−5 M A2A [4, 10] | further results
CCCSC[C@H]1O[C@@H](n2cnc3c(N)nc(NN=CCC(C)C)nc32)[C@H](O)[C@@H]1O [Compound 47, 5′-Deoxy-2-(N′-3-methyl-1-butylidenehydrazino)-5′-propylthioadenosine] | 1500 ± 280 nM | – | – | Ki [1]: 697 ± 31 nM; Emax at 100 µM [2]: 16%; % displacement at 10^−5 M A1 [3]: 22.0%; Emax ([5]; CHO; read-out: Emax (%) A2A): 126 ± 3%; EC50 [5, 8]: 12.9 ± 0.9 µM; agonist behaviour, cAMP production via adenosine A2A receptor [5, 9]: full agonists
Nc1nc(I)nc2c1ncn2[C@@H]1O[C@H](CO)[C@@H](O)[C@H]1O [Compound 1, 2-Iodoadenosine] | – | – | – | % displacement at 10^−5 M A1 [3]: 36.1%; Emax ([5]; CHO, read-out: Emax (%) A2A): 112 ± 7%; EC50 [5, 8]: 5.4 ± 0.7 µM
COC[C@H]1O[C@@H](n2cnc3c(NC4CCCC4)ncnc32)[C@H](O)[C@@H]1O [Compound 67, N^6-cyclopentyl-5′-O-methyladenosine] | 366 ± 109 nM | 74 ± 4% | – | –
CCOC[C@H]1O[C@@H](n2cnc3c(NC4CCCC4)ncnc32)[C@H](O)[C@@H]1O [Compound 73, N^6-cyclopentyl-5′-O-ethyladenosine] | – | 69 ± 6% | 33.9% | –
CCOC[C@H]1O[C@@H](n2cnc3c(NC4CCCC4)nc(Cl)nc32)[C@H](O)[C@@H]1O [Compound 76, N^6-cyclopentyl-2-Chloro-5′-O-ethyladenosine] | 1730 ± 700 nM | 62 ± 6% | – | –
OC[C@H]1O[C@@H](n2cnc3c(NC4CCCC4)ncnc32)[C@H](O)[C@@H]1O [CPA, reference compound] | – | – | – | Ki ([1]; [125I]AB MECA, human A3 receptor in HEK 293 cells, read-out: Ki A3): 281 ± 56 nM; inhibition at 10 µM ([6]; CHO, read-out: % inhib. A1 of forskolin-induced cAMP): 69 ± 3%; % displacement at 10^−5 M A2A [4]: 45.9%
O[C@@H]1[C@H](O)[C@@H](COC2CC2)O[C@H]1n1cnc2c(NC3CCCC3)nc(Cl)nc21 [Compound 82, N^6-cyclopentyl-2-Chloro-5′-O-cyclopropyladenosine] | – | 43 ± 9% | 34.6% | –
O[C@@H]1[C@H](O)[C@@H](COC2CC2)O[C@H]1n1cnc2c(NC3CCCC3)ncnc21 [Compound 79, N^6-Cyclopentyl-5′-O-cyclopropyladenosine] | – | 62 ± 4% | 24.3% | –
CCOC[C@H]1O[C@@H](n2cnc3c(NCc4cccc(I)c4)nc(Cl)nc32)[C@H](O)[C@@H]1O [Compound 77, N^6-(3-iodobenzyl)-2-Chloro-5′-O-ethyladenosine] | 848 ± 60 nM | −72 ± 38 % | – | –
COC[C@H]1O[C@@H](n2cnc3c(NCc4cccc(I)c4)nc(Cl)nc32)[C@H](O)[C@@H]1O [Compound 71, N^6-(3-iodobenzyl)-2-Chloro-5′-O-methyladenosine] | 527 ± 21 nM | 37 ± 15% | – | –
OC[C@H]1O[C@@H](n2cnc3c(NC4CCCC4)nc(Cl)nc32)[C@H](O)[C@@H]1O [2-Cl-CPA, reference compound] | – | – | 53.1% | –
CCSC[C@H]1O[C@@H](n2cnc3c(N)nc(NN=CCC(C)C)nc32)[C@H](O)[C@@H]1O [Compound 46, 5′-Deoxy-2-(N′-3-methyl-1-butylidenehydrazino)-5′-ethylthioadenosine] | 500 ± 40 nM | – | – | Ki [1]: 814 ± 132 nM; Emax at 100 µM [2]: 7%; % displacement at 10^−5 M A1 [3]: 21.2%; Emax ([5]; CHO; read-out: Emax (%) A2A): 101 ± 4%; EC50 [5, 8]: 7.5 ± 0.3 µM; agonist behaviour, cAMP production via adenosine A2A receptor [5, 9]: full agonists
CCOC[C@H]1O[C@@H](n2cnc3c(NCc4cccc(I)c4)ncnc32)[C@H](O)[C@@H]1O [Compound 74, N^6-(3-Iodobenzyl)-5′-O-Ethyladenosine] | – | 6 ± 21% | 40.4% | –
N^6-Cyclopentyl-5′-O-Cyclopropyladenosine [Compound 78] | – | 61 ± 2% | – | –
CSC[C@H]1O[C@@H](n2cnc3c(N)nc(NN=CCC(C)C)nc32)[C@H](O)[C@@H]1O [Compound 45, 5′-Deoxy-2-(N′-3-methyl-1-butylidenehydrazino)-5′-methylthioadenosine] | 220 ± 20 nM | – | – | Ki [1]: 253 ± 36 nM; Emax at 30 µM [2]: 41%; % displacement at 10^−5 M A1 [3]: 18.9%; Emax ([5]; CHO; read-out: Emax (%) A2A): 44 ± 4%; EC50 [5, 8]: 5 ± 0.6 µM
O[C@@H]1[C@H](O)[C@@H](COC2CC2)O[C@H]1n1cnc2c(NCc3cccc(I)c3)nc(Cl)nc21 [Compound 83, N^6-(3-Iodobenzyl)-2-chloro-5′-O-cyclopropyladenosine] | – | −118 ± 41 % | 38.7% | –
COC[C@H]1O[C@@H](n2cnc3c(NC4CCCC4)nc(Cl)nc32)[C@H](O)[C@@H]1O [Compound 70, N^6-Cyclopentyl-2-chloro-5′-O-methyladenosine] | 1390 ± 140 nM | 73 ± 4% | – | –
5′-Deoxy-2-iodo-5′-methylthioadenosine [Compound 33] | 3900 ± 580 nM | – | – | –
COC[C@H]1O[C@@H](n2cnc3c(NCc4cccc(I)c4)ncnc32)[C@H](O)[C@@H]1O [Compound 68, N^6-(3-iodobenzyl)-5′-O-methyladenosine] | 373 ± 80 nM | 53 ± 10% | – | –
CCCCC#Cc1nc(N)c2ncn([C@@H]3O[C@H](CSC)[C@@H](O)[C@H]3O)c2n1 [Compound 37] | 60 ± 20 nM | – | – | EC50 [5, 8]: 0.7 ± 0.1 µM; Emax (%) A2A ([5]; compared to Emax of CGS 21680 (10 μM) in A2A CHO cells, ±SEM, n = 3; n.a. = not active, no cAMP produced at 30 μM (35) or 100 μM): 45 ± 6%
O[C@@H]1[C@H](O)[C@@H](COC2CC2)O[C@H]1n1cnc2c(NCc3cccc(I)c3)ncnc21 [Compound 80, N^6-(3-Iodobenzyl)-5′-O-cyclopropyladenosine] | – | −104 ± 22 % | 43.7% | –
CNC(=O)[C@H]1O[C@@H](n2cnc3c(NCc4cccc(I)c4)nc(Cl)nc32)[C@H](O)[C@@H]1O [Cl-IB-MECA, reference compound] | – | – | 23.5% | –
